For assay [1] the following is noted: intravenous administration, Konturek et al; cited from earlier work.
Assay [2] has as its system hyperphagic obese mice. The following applies: cited from earlier work.
The test system of assay [3] is ovariectomized rats pretreated with estradiol benzoate plus progesterone. As to the kind of experiment: Food intake and ingestive behavior after two ivt injections, Example 1. The assay is classed as in vivo, rat. As for the experimental part: Adult female rats (CRL:CD® (SD)BR, Charles River Breeding Labs, Wilmington, MA) were maintained in individual wire bottom cages under controlled temperature and light (lights on 0500-1900 h) with ad libitum access to food and water. Rats were ovariectomized and permanent cannulae were implanted in the third cerebral ventricle under pentobarbital anesthesia (40 mg/kg, […]). Eleven to 13 days after surgery, rats were treated with estradiol benzoate (30 μg in 0.1 ml sesame oil, sc) and progesterone (15 mg in 0.3 ml sesame oil, sc). Two days later […], food and water were removed and patency of the ivt cannula was checked by observing efflux of cerebrospinal fluid. […] Immediately after the ivt injections, rats were returned to their home cages which contained a known amount of rat chow and observed for 60 min. The behavior was recorded in 5 mutually exclusive categories: eating, grooming, locomotion, resting and other [Blundell, Bio-grammar of Feeding: Pharmacological Manipulations and Their Interpretations. In: Cooper, S. J. (ed) Theory in Psychopharmacology, Academic Press, N.Y., Vol. I: 233 (1981)] the following measurements were derived; total food intake (g); latency to feeding response (min); duration of time spent eating (min); number of eating bouts (n); duration of eating bouts (min) and local eating rate (g/min). Local eating rate is a measure of amount of food consumed per unit time spent eating.
Although no attempt was made to quantify the water intake, the latency to drinking and amount of time spent on drinking were monitored.
The number of animals feeding and drinking after peptide treatment were compared with saline-treated rats by the Fisher exact probability test. Parameters of ingestive behavior of controls vs. peptide treated groups were analyzed by the Mann-Whitney U test. Comparisons within groups of parameters after the first and second injections were made with the Wilcoxon matched pairs - signed rank test.
(*=P<0.05; **=P<0.01, Mann-Whitney U tests; a=p<0.05; b=P<0.025; c=P<0.005, Fisher Exact Probability Test) and S=saline.

Assay [4] has as its system estradiol benzoate-progesterone-treated ovariectomized rats. The assay is described as follows: Ingestive behavior noticed after ivt hPP during LH release studies. The following applies: intraventricular (ivt) administration. The assay is classed as in vivo, rat. The source says:
251; Morley et al (1973), Neurosci. Biobehav. Revs. 7: 281]. Recently, Tatemoto, Proc. Natl. Acad. Sci. USA. […] The detailed distribution pattern of neurons displaying NPY-like immunoreactivity in the rat brain has been described [Allen et al (1983), Science 221:877; Allen et al (1983), 13th Ann. Mtg. Soc. Neurosci. 9:291 (Abstr.); O'Donohue et al (1983), 13th Ann. Mtg. Soc. Neurosci. 9:290 (Abstr.)]. The physiological significance of NPY-like immunoreactivity in the rat brain is presently unknown.

For assay [5], the system named is normal adult male rats. As to the kind of experiment: Food intake after NPY and RPP by the Example 1 procedure, Example 3. Type of assay: in vivo, rat.
Setting [6] is: hyperphagic obese mice, Malaisse et al.
Where [7] appears, read: obese mice, intravenous, Zipf et al.
The mark [8] stands for this setting: 2 or 10 μg ivt, after second injection, P<0.02.

Read-outs that look alike come from different tables or passages of the source. Ends that are not written are not given here.

Regarding `NC(=O)[C@@H]1CCCN1C(=O)[C@H](Cc1cnc[nH]1)NC(=O)[C@@H]1CCC(=O)N1` [TRH, p-Glu-His-Pro-NH2], in assay [1], the food intake result is reported as “suppressed food intake”.
Turning to “bovine pancreatic polypeptide [bovine PP]”, in assay [2] (setting [6]), the body weight gain entry was “suppressed body weight gain” and the food intake result is listed as “reduced food intake”. Further, in assay [2] (setting [7]), the food intake entry is reported as “decrease of food intake” and the weight gain result is reported as “decrease in weight gain”.
Take “human pancreatic polypeptide (APLEPVYPGDNATPEQMAQYAADLRRYINMLTRPRY; ends and bridges not checked; UniProt P01298 30-65, looked up) [hPP, human pancreatic polypeptide, straight-chain 36 amino acid residues; from Boehringer Mannheim]”: the “rats that ate after the first injection” value in assay [3] (2 μg ivt) is given as 4/6. Besides, in assay [3] (10 μg ivt), the “rats in which the drinking response preceded the feeding response” value is 3/7 and the “rats that ate after the first injection” value is 5/7. For the same molecule, in assay [3] (setting [8]), the “amount of time spent drinking” value was “only the higher does of hPP produced a similar response” and the “number of animals drinking” value is recorded as “only the higher does of hPP produced a similar response”. The cumulative food intake result in assay [3] (2 or 10 μg ivt, compared with saline treated control rats) is reported as “stimulated cumulative food intake”. In addition, in assay [3] (ivt), the “number of rats grooming during the observation periods” value is on record as “Neither peptide altered the number of rats grooming”. Further, the ingestive behavior result in assay [4] is given as “enhanced ingestive behavior”.
As for “rat pancreatic polypeptide (APLEPMYPGDYATHEQRAQYETQLRRYINTLTRPRY; ends and bridges not checked; UniProt P06303 30-65, looked up) [RPP, rat pancreatic polypeptide, member of the vertebrate pancreatic polypeptides (Pancreatic Hormone III)]”, the cumulative food intake result in assay [5] was “enhanced cumulative food intake which is dose-dependent”.
